In patent publication US11492357B2, “Thieno[3,2-d]pyrimidine derivative compound having inhibitory activity for protein kinase” (Hanmi Pharm. Co., Ltd., priority 2017, dated 2022):
Counter-ions that a name gives are not always drawn.

Experiments:
[1] = target: B-RAF V600E (Homo sapiens (Human), UniProt P15056, V600E); test: RAF kinase inhibitory activity, Kinase Profiling Service; format: biochemical
Method: (§1) The levels of enzymatic inhibition of the compound were calculated as percent inhibition at various concentrations. Based on percent inhibition, dose-response curves were plotted using GraphPad Prism software.

[2] = target: B-RAF wild type (Homo sapiens (Human), UniProt P15056); test: as above; format: biochemical; settings: read-out: B-RAF WT (IC50)
Chain of B-RAF wild type (P15056 whole entry): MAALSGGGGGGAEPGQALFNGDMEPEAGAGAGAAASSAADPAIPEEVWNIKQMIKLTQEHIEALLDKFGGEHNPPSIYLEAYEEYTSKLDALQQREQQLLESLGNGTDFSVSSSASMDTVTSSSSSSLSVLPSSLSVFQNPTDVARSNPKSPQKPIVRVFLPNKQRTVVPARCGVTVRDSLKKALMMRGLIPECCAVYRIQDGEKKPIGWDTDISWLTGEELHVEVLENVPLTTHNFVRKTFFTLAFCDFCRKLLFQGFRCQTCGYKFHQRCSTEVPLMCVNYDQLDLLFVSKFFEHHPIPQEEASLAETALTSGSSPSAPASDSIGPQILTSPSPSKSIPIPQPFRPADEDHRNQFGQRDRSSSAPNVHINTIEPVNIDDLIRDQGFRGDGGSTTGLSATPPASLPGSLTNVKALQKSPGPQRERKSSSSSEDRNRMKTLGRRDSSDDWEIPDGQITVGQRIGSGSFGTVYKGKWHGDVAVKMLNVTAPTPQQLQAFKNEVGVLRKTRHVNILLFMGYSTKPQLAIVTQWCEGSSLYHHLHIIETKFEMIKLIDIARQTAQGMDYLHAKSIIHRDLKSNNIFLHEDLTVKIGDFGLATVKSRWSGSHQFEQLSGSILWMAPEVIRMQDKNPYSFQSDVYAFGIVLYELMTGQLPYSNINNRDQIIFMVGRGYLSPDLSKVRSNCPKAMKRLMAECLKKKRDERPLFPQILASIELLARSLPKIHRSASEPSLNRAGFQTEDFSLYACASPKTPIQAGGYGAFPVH
Method: as §1

[3] = target: RAF1 (C-RAF) Y340D/Y341D (Homo sapiens (Human), UniProt P04049, Y340D/Y341D); test: as above; format: biochemical
Chain of RAF1 (C-RAF) Y340D/Y341D (P04049 whole entry Y340D/Y341D): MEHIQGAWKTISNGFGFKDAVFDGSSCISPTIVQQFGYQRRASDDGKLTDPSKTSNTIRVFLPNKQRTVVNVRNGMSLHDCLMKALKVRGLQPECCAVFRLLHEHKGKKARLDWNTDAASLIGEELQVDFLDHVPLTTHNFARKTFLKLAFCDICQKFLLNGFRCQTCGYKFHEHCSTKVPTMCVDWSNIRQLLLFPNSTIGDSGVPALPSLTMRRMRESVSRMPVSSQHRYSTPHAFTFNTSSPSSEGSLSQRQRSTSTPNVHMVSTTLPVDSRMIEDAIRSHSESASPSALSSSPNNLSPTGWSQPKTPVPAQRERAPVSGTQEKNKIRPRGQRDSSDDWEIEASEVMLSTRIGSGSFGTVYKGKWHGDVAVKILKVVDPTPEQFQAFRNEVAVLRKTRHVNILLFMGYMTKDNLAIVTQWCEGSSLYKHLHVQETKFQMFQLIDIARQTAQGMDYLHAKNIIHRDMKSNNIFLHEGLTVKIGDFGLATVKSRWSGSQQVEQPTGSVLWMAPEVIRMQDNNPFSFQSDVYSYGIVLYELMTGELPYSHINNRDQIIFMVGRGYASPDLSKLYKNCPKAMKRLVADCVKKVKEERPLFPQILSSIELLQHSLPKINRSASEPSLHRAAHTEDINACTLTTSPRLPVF
Method: as §1

[4] = system: SK-MEL-30 melanoma cells (N-RAS Q61K mutant); test: Inhibition of cell growth of N-RAS Q61K mutant SK-MEL-30 cells (SRB); format: cell-based; settings: Homo sapiens, 72 hours incubation, SRB staining
Method: N-RAS^Q61K mutant SK-MEL-30 melanoma cell line (ACC-151) was obtained from DSMZ (Deutsche Sammlung von Mikroorganismen und Zellkulturen GmbH, Germany). SK-MEL30 cells express wildtype B-RAF and mutant N-RAS (Q61K). SK-MEL-30 cells were incubated in a RPMI medium supplemented with 10% FBS and 1% penicillin/streptomycin (Gibco BRL) under 37° C., 5% CO2 and 95% air. Cells were seeded in 96-well plates at a density of 5,000 cells/well, and cultured for 18 hours or more. Then cells were treated with 0.1-10 μM (1/10 serial dilution) of test compounds, and incubated for 72 hours.
To evaluate cell viabilities, SK-MEL-30 cell lines were fixed with 10% TCA (trichloroacetic acid), stained with SRB (sulforhodamine B), and the absorbance was measured at 540 nm. Then, GI50, i.e., the concentration of drug to cause 50% reduction in proliferation of cancer cells, was calculated therefrom. The growth rates of cancer cells were calculated by Equation 1 or 2. [(Ti−Tz)/(C−Tz)]×100 (for […]) Equation 1 [(Ti−Tz)/Tz]×100 (for Ti<Tz) Equation 2
In Equation 1 and 2, ‘Tz’ refers to the density of untreated cells, which is the absorbance in 0% cell growth groups. ‘C’ refers to the density of cells cultured by adding only medium, and ‘Ti’ refers to the density of cells treated with test compounds. […]

Chain of B-RAF V600E (P15056 whole entry V600E): as the sequence (P15056 whole entry) above, with V600E counted along it

SMILES	IC50 [1]	IC50 [2]	IC50 [3]	GI50 [4]
Cc1ccc2c(Nc3ccc(O)c(Cl)c3F)nccc2c1NC(=O)c1csc2c(N)ncnc12 [Compound•2HCl, 4-amino-N-(1-((3-chloro-2-fluoro-4-hydroxyphenyl)amino)-6-methylisoquinolin-5-yl)thieno[3,2-d]pyrimidine-7-carboxamide dihydrochloride]	30 nM	392 nM	21 nM	231 nM
CCCS(=O)(=O)Nc1ccc(F)c(C(=O)c2c[nH]c3ncc(-c4ccc(Cl)cc4)cc23)c1F [Control, vemurafenib, reference compound]	–	–	–	> 10000 nM
